# Experimental data from US9980967B1, “Method for overcoming drug resistance of EGFR mutation and cancerous stemness of human non-small cell lung carcinoma” (NATIONAL CHIAO TUNG UNIVERSITY, priority 2017, dated 2018).
# Assays:
# Assay type in all cases: cell-based, human
# [1] = system: A549 cells; assay: MTT cell viability assay in A549 cells; settings: 0~40 μM for 24 hours, compared with Gefitinib
# Description: After treatment, the cells were re-cultured in fresh medium for 2 days. The cell viability was analyzed by MTT assays. The results were obtained from three independent experiments and the bar represents the mean±S.E.M. ***p<0.001 indicates significant difference between Gefitinib and SP101 treated samples.
# A549 (ATCC number: CCL-185) was a non-small cell lung carcinoma cell line which expressed wild type EGFR and with K-Ras mutation (G12S). H1975 (ATCC number: CRL-5908) was a non-small cell lung carcinoma cell line which expressed EGFR L858R/T790M mutation. Oct4 and Nanog overexpression in A549-ON presented the properties of cancer stem-like cells, as well as epithelial-mesenchymal transdifferentiation. PLC26 was lung cancer cells that separated from pleural effusion of a clinical lung cancer patient (IRB number: 103-011-E). A549-ON cells were cultured in DMEM medium. A549 and H1975 cells were maintained in RPMI-1640 medium. […]
# Please refer to FIG. 12. […] To compare the cell viability of SP101 and Gefitinib in K-Ras mutation-drug resistant A549 and A549-ON cell lines, the cells were treated with 0˜40 μM SP101 or Gefitinib for 24 hours, and analyzed by MTT assays. […] To determine the effect of SP101 and Gefitinib on the cell viability in cancer stem-like A549-ON cells, the cells were treated with 10˜40 μM SP101 or Gefitinib for 24 hours, and analyzed by MTT assays.
# [2] = system: H1975 cells with EGFR (T790M) mutation; assay: MTT cell viability assay in H1975 cells; settings: 0~40 μM for 24 hours, re-cultured 2 days, compared with Gefitinib
# Text: A549 (ATCC number: CCL-185) was a non-small cell lung carcinoma cell line which expressed wild type EGFR and with K-Ras mutation (G12S). H1975 (ATCC number: CRL-5908) was a non-small cell lung carcinoma cell line which expressed EGFR L858R/T790M mutation. Oct4 and Nanog overexpression in A549-ON presented the properties of cancer stem-like cells, as well as epithelial-mesenchymal transdifferentiation. PLC26 was lung cancer cells that separated from pleural effusion of a clinical lung cancer patient (IRB number: 103-011-E). A549-ON cells were cultured in DMEM medium. A549 and H1975 cells were maintained in RPMI-1640 medium. PLC26 cells were maintained in LHC-9 medium. DMEM and RPMI medium were supplemented with 10% fetal bovine serum (FBS), 100 units/ml penicillin, 100 μg/ml streptomycin and sodium bicarbonate. LHC-9 medium was supplemented with 5% FBS and 100 units/ml penicillin. These cells were cultured at 37° C. and 5% CO2 in a humidified incubator.
# Please refer to FIG. 2. The H1975 cells were treated with 0˜40 μM of SP101 or Gefitinib for 24 hours. After treatment, the H1975 cells were re-cultured in fresh medium for 2 days. The cell viability was analyzed by MTT assays. The results were obtained from three independent experiments and the var represents the mean±S.E.M. ***p<0.001 indicates significant difference between Gefitinib and SP101 treated samples.
# [3] = system: A549-ON cells; assay: Annexin V/PI apoptosis flow cytometry in A549-ON cells; settings: 30 μM
# Description: At the end of treatment, apoptosis was measured by Annexin V-PI staining using flow cytometry analysis. The population of Annexin V+/PI− cells represents cells undergoing early apoptosis (low right), whereas the fraction of Annexin V+/PI+ cell are those undergoing late apoptosis (upper right). The representative flow data were shown from one of three separate experiments with similar findings.
# The bar represents the mean±S.E.M. ***p<0.001 indicates significant difference between untreated and SP101 or Gefitinib treated samples.
# We compared the apoptosis levels of SP101 and Gefitinib in cancer stem-like A549-ON cells by Annexin V and PI staining. Please refer to FIG. 19. […] Please refer to FIG. 20. The average of total apoptosis follows SP101 and Gefitinib in the A549-ON cells around 69.29% and 7.59%, respectively.
# [4] = system: Oct4, Nanog and Survivin in A549-ON cells; assay: Western blot and immunofluorescence of Oct4, Nanog and Survivin in A549-ON cells
# Description: At the end of treatment, the total protein extracts were prepared for Western blot analyses using specific antibodies, including rabbit anti-Survivin, rabbit anti-cleaved caspase 3 and mouse anti-actin. Representative immunoblotting data were shown from one of three separate experiments with similar findings. […] was an internal control protein.
# (§1) FIG. 17 is a result of immunofluorescence staining and confocal microscopy. Then green color indicates the location of Oct4 excited with 488 nm and the emission and collected in 493-518 nm. The β-tubulin was stained with Cy3-labeled mouse anti-β-tubulin antibody. The fluorescence intensity of β-tubulin (red color) was excited with 543 nm and the emission was collected in range of 560-580 nm. Blue fluorescence indicates nuclei following staining with Hoechst 33258 and was excited with 405 nm and the emission was collected in 415-450 nm. Overlapping localization is shown in the merged images.
# as §1, with “18” for “17”, “Survivin protein” for “Oct4”
# Oct4 and Nanog have been served as markers of tumorigenesis. Furthermore, Oct4 played a pivotal role in Gefitinib resistance in lung cancer stem cells. […] Please refer to FIG. 16. […] We further investigated the expression of Oct4 and Survivin by immunofluorescence staining and confocal microscopy. Please refer to FIGS. 17 and 18. The green fluorescence (dylight 488) indicated the location of Oct4 and Survivin. The blue fluorescence (Hoechst 33258) and red (Cy3) fluorescence represent nucleus and β-tubulin, respectively. Treatment with 30 μM SP101 for 24 hours inhibited Oct4 proteins expression and induced apoptotic bodies as shown in FIG. 17; moreover, the Survivin proteins were inhibited by SP101 treatment as shown in FIG. 18.
# [5] = 30 μM for 24 hours, immunofluorescence and confocal microscopy
# [6] = 20<30 μM for 24 hours, Western blot
structure (smiles),measurement,setting,value
"CCCCCCCCCCCCOC(=O)CCC(=O)N1CCN(CCCOc2cc3c(Nc4ccc(F)c(Cl)c4)ncnc3cc2OC)CC1 [SP101, dodecyl 4-(4-(3-(4-(3-chloro-4-fluorophenylamino)-7-methoxyquinazolin-6-yloxy)propyl)piperazin-1-yl)-4-oxobutanoate]",reduction of cell viability,[1],more potent on the reduction of cell viability than Gefitinib
same,cell viability inhibition,[2],significantly higher in the SP101 group than in the Gefitinib group
same,"late apoptosis cells, compared with Gefitinib",[3],induced more late apoptosis cells than Gefitinib
same,levels of Annexin V+/PI− cells (early apoptosis) and Annexin V+/PI+ cells (late apoptosis),[3],significantly increased
same,average of total apoptosis,"[3]; early and late apoptosis, flow cytometry",around 69.29%
same,Oct4 proteins expression,[4]; [5],inhibited
same,Survivin proteins,[4]; [5],inhibited
same,Nanog protein expression,[4]; [6],significantly reduced
same,Oct4 protein expression,[4]; [6],significantly reduced
same,Survivin protein expression,[4]; [6],significantly reduced
